# Laboratory results from patent publication US20200069644A1, “NOVEL USE OF A FORMYL PEPTIDE RECEPTOR 2/ LIPOXIN A4 RECEPTOR (FPR2/ALX) AGONIST FOR TREATMENT OF HEART FAILURE” (BRISTOL- MYERS SQUIBB COMPANY, priority 2017, published 2020).
# Values joined by “and” are separate entries in the source; they are usually repeats but may differ in a detail not shown here. Equal values may be shown once.
# Key:
# Mouse FPR1 = target: T1, Mouse FPR1 (Mus musculus, UniProt P33766); assay: cAMP inhibition, mouse FPR1/CHO-A12; format: cell-based
# T1 construct: expressed in transfected cells
# T1 sequence (P33766 1-364): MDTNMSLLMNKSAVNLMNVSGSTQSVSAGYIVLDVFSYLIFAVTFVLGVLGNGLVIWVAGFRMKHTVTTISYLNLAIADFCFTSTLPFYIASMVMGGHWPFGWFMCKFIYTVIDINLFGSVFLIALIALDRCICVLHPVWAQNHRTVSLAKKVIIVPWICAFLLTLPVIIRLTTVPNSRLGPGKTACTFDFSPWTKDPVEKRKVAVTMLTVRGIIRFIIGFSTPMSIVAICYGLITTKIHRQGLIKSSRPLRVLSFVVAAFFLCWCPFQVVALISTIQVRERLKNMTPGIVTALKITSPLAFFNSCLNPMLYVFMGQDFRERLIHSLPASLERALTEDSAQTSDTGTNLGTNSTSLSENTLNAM
# [1] = system: DOCA-challenged cardiac fibrosis in mice; format: in vivo
# Description: In a second model of non-ischemic heart disease with hypertension, mice were subjected to uni-nephrectomy and challenged with deoxycorticosterone acetate (DOCA) and saline drinking water to stimulate cardiac hypertrophy and left ventricular fibrosis. Mice were administered DOCA using subcutaneously implanted pellets (50 mg). A separate group of mice were subjected to surgery via creation of subcutaneous pocket (surgical “sham” group); these mice served as control for pellet implantation surgery. Mice were treated with Compound 1 (1 mg/kg, QD) or dosing solution (QD, referred to as vehicle) 24 hours after surgery. Treatment with Compound 1 was given to mice for 3 weeks. At the end of treatment phase, hearts were removed from animals and evaluated for collagen levels/fibrosis by cross-sectional histology of the hearts.
# Myocardial fibrosis was evaluated in the mouse with continuous DOCA challenge administered by subcutaneous release pellet. The model increases systemic blood pressure and tissue inflammation in target tissues such as the myocardium via agonism of the mineralocorticoid receptor by DOCA. It also involves surgical uni-nephrectomy and supplementation with saline in the drinking water to further drive disease pathology. This is a model of non-ischemic heart disease.
# The effect of Compound 1 on cardiac fibrosis development in the DOCA-salt mouse model was evaluated histologically. […]
# [2] = system: myocardial infarction in rats; assay: Rat model of permanent coronary artery occlusion, 6 weeks; format: in vivo
# Description: In a second model of myocardial infarction, permanent coronary artery occlusion was carried out in rats using a ligature placed around the left anterior descending artery to induce myocardial infarction. Treatment with orally-administered Compound 1 (0.01, 0.1, 1, and 10 mg/kg, QD) or dosing solution without compound (QD, referred to as vehicle) was initiated 48 hours following myocardial infarction. Rats subjected to thoracotomy but not infarcted were included as surgical “sham” controls. Rats were evaluated 6 weeks following myocardial infarction to assess structure/function relationships. Hearts were removed from rats for histological processing to measure infarct wall thickness and collagen composition. Echocardiography was carried out to evaluate cardiac function.
# The effects of Compound 1 on left ventricle and infarct scar remodeling were evaluated in a rat model of permanent coronary artery occlusion. […] In addition, the effect of Compound 1 on cardiac function was measured by echocardiography to assess structure/function relationships. The structure of the myocardial wall was measured histologically. […]
# Echocardiography was used to measure cardiac function at the end of the treatment phase. The fraction of blood pumped out of the left ventricle per contraction cycle (i.e., ejection fraction) was determined using M-mode echocardiography. […]
# HL-60 cell line = assay: HL-60 cell migration assay, antagonist mode (SAA-stimulated chemotaxis); format: cell-based; conditions: Homo sapiens; HL-60 cells; read-out: IC50, antagonism of chemotaxis stimulated by SAA
# Description: The HL-60 cell line (ATCC, CCL-240, lot 60398411) was maintained in IMDM (Life Tech, cat 12440-053) medium supplemented with 20% fetal bovine serum, 50 U/ml penicillin, and 50 μg/ml streptomycin at 37° with 5% CO2. Cells were differentiated into the granulocyte lineage with DMSO; 2.5×10^5 cells/ml were incubated with 1.25% DMSO for 5 days.
# After 5 day differentiation, the cells were resuspended in phenol free RPMI (Invitrogen, cat 11835) with 0.2% fatty acid free BSA at a concentration of […]. The dHL-60 cells (10^5 in 100 μl) were pre-incubated for 15 minutes with varying concentrations of the […] at 37° with 5% CO2. Then 0.8 μM of the recombinant serum amyloid A1 peptide (rSAA1, PeproTech, Cat #300-53) was added to the bottom chamber of each HTS transwell-96 well plate (Corning #3387). Migration was induced by placing […] and the dHL60 cells mixture in the top chamber of the transwell plate. Cells were allowed to migrate for 120 min across the 5 micron filters at 37° C. with 5% CO2. Following migration, neutrophils or dHL-60 cells remaining in the transwell lower chamber (migrated fraction) were quantitated using the cell-titer-glo luminescence cell viability assay (Promega, G7571). […]
structure (smiles),measurement,setting,value
"COc1cc(F)c([C@@H]2CNC(=O)[C@H]2NC(=O)Nc2ccccc2)c(F)c1 [Compound 1, 1-((3S,4R)-4-(2,6-difluoro-4-methoxyphenyl)-2-oxopyrrolidin-3-yl)-3-phenylurea]",EC50,Mouse FPR1,~0.384 µM and 0.384 µM
same,reduction of left ventricular fibrosis vs. vehicle treatment group,"[1]; 1 mg/kg QD for 3 weeks, started 24 h after surgery, P<0.01",50%
same,tolerability during in-life phase,"[1]; mouse, in vivo, 1 mg/kg",well tolerated
same,contralateral wall thickness,"[2]; 0.01-10 mg/kg, between treatment groups or sham",No changes
same,"transmural infarct wall thickness, increase relative to vehicle","[2]; 10 mg/kg PO QD, started 48 h after MI, P<0.01",96%
same,IC50,HL-60 cell line,0.057 µM
